The values that follow come from patent USRE37556E1, “Superoxide radical inhibitor” (Otsuka Pharmaceutical Co., Ltd., priority 1990, dated 2002).

The assay relates to human neutrophilic leukocytes. The assay can be described thus: Inhibition of superoxide radical (O2-) generation in FMLP-stimulated human neutrophilic leukocytes (ferricytochrome C method). Format: cell-based. The settings on record: Homo sapiens, Leukocyte. The source says: (1) Activity for inhibiting the generation of superoxide radical (O2^−) in human neutrophilic leukocytes
That is, a whole blood obtained from a healthy adult and treated by anticoagulation method was subjected to a dextranhypotonic treatment to obtain leukocyte cells. The leukocyte cells were then subjected to a density gradient ultracentrifugation by Ficoll-Paque to obtain a neutrophilic leukocyte fraction.
O2^− generation was examined by the ferricytochrome C method in accordance with the method of B. N. Cronstein et al. [Journal of Experimental Medicine, vol. […] Each test compound was dissolved in dimethyl sulfoxide (DMSO); the solution was added to neutrophilic leukocytes before the addition of FMLP; then, the neutrophilic leukocytes were pre-incubated at 37° C.

Setting [1] is: pH 7.4, Table 15, O2- generation, 3x10^-7 M FMLP, cytochalasin B, 37° C., pH 7.4.
[2] abbreviates: Table 16, comparative test present compounds vs prior art compounds, NE = not effective.

Counter-ions that a name gives are not always drawn.

Molecule `CCOc1ccc(-c2nc(-c3ccc(O)c(CC)c3)cs2)cc1OCC` [compound 98, 4-(3-Ethyl-4-hydroxyphenyl)-2-(3,4-Diethoxyphenyl)thiazole] came in with an IC50 under setting [1] of 0.083 µM.

Under setting [1], `CCOc1ccc(-c2nc(-c3ccc(O)c(C(=O)O)c3)c(C)s2)cc1OCC` [compound 99, 4-(3-Carboxy-4-hydroxyphenyl)-2-(3,4-diethoxyphenyl)-5-methylthiazole] showed an IC50 of 0.72 µM.

As for `CCOc1ccc(-c2nc(-c3cc(C(=O)O)c(O)cc3O)cs2)cc1OCC` [compound 100, 4-(3-Carboxy-4,6-dihydroxyphenyl)-2-(3,4-diethoxyphenyl)thiazole], the concentration for half-maximal inhibition (IC50) under setting [1] is 0.048 µM.

`CCOc1ccc(-c2nc(-c3cc(C(=O)OC)cc([N+](=O)[O-])c3O)cs2)cc1OCC` [compound 101, 4-(3-Methoxycarbonyl-5-nitro-6-hydroxyphenyl)-2-(3,4-diethoxyphenyl)thiazole]: it took 0.01 µM to reach half-maximal inhibition under setting [1] (IC50).

The molecule `CCOc1ccc(-c2nc(-c3cc(C(=O)OC)cc(N)c3O)cs2)cc1OCC` [compound 102, 4-(3-Methoxycarbonyl-5-amino-6-hydroxyphenyl)-2-(3,4-diethoxyphenyl)thiazole] had an IC50 under setting [1] of 0.069 µM.

`C=CCc1cc(C(=O)O)cc(-c2csc(-c3ccc(OCC)c(OCC)c3)n2)c1O` [compound 103, 4-(3-Carboxy-5-allyl-6-hydroxyphenyl)-2-(3,4-diethoxy-phenyl)thiazole] showed an IC50 under setting [1] of 0.094 µM.

In the case of `CCOc1cc(-c2nc(-c3cc(C(=O)O)ccc3O)cs2)ccc1OC` [compound 104, 4-(3-Carboxy-6-hydroxyphenyl)-2-(3-ethoxy-4-methoxy-phenyl)thiazole], the IC50 is 0.034 µM under setting [2] and 0.034 µM under setting [1].

Under setting [2], `COc1ccc(-c2nc(-c3ccc(O)c(C(=O)O)c3)cs2)cc1OC` [compound 105, 4-(3-Carboxy-4-hydroxyphenyl)-2-(3,4-dimethoxyphenyl)thiazole, reference compound] had an IC50 of 1 µM.

Take `CCOc1ccc(-c2nc(-c3cc(O)cc(C(=O)O)c3)cs2)cc1OCC` [compound 110, 4-(3-Carboxy-5-hydroxyphenyl)-2-(3,4-diethoxyphenyl)thiazole, reference compound]: the IC50 under setting [2] came to 0.66 µM.

As for `CCCCOc1ccc(-c2nc(-c3ccc(O)c(C(=O)O)c3)cs2)cc1OCCCC` [compound 111, 4-(3-Carboxy-4-hydroxyphenyl)-2-(3,4-dibutoxyphenyl)thiazole, reference compound], the IC50 under setting [2] was 8.3 µM.

As to `CCOc1ccc(-c2nc(-c3cc(C(=O)O)ccc3OC)cs2)cc1OCC` [compound 112, 4-(3-Carboxy-6-methoxyphenyl)-2-(3,4-diethoxyphenyl)thiazole, reference compound], under setting [2], the IC50 was 8.7 µM.

Under setting [1], `CCOc1ccc(-c2nc(-c3cc(C(=O)O)cc(N)c3O)cs2)cc1OCC` [compound 113, 4-(2-Hydroxy-3-amino-5-carboxyphenyl)-2-(3,4-diethoxy-phenyl)thiazole hydrochloride] had an IC50 of 0.025 µM.

As to `CCCc1cc(C(=O)O)cc(-c2csc(-c3ccc(OCC)c(OCC)c3)n2)c1O` [compound 114, 4-(2-Hydroxy-3-propyl-5-carboxyphenyl)-2-(3,4-diethoxy-phenyl)thiazole], under setting [1], it took 0.1 µM to reach half-maximal inhibition (IC50).

For `CCOc1ccc(-c2nc(-c3cccc(C(=O)O)n3)cs2)cc1OCC` [compound 115, 4-(6-Carboxy-2-pyridyl)-2-(3,4-diethoxyphenyl)-thiazole], under setting [1], the IC50 was 0.08 µM.

Under setting [1], `CCOc1ccc(-c2nc(-c3ccccc3)cs2)cc1OCC` [compound 116, 2-(3,4-Diethoxyphenyl)-4-phenylthiazole] returned an IC50 of 0.37 µM.

Under setting [1], `CCOc1ccc(-c2nc(-c3ccc(NCCN4CCCCC4)c(C(=O)OC)c3)cs2)cc1OCC` [compound 117, 2-(3,4-Diethoxyphenyl)-4-{3-methoxycarbonyl-4-[2-(1-piperidinyl)ethylamino]phenyl}thiazole dihydrochloride] showed an IC50 of 0.46 µM.
